Measurements as given in BindingDB's records for doi:10.1021/acs.biochem.6b00412 (Duquesne University, 2016).

Biological target: T1, Trifunctional purine biosynthetic protein adenosine-3 (Homo sapiens, UniProt P22102)
T1 sequence (P22102 whole entry): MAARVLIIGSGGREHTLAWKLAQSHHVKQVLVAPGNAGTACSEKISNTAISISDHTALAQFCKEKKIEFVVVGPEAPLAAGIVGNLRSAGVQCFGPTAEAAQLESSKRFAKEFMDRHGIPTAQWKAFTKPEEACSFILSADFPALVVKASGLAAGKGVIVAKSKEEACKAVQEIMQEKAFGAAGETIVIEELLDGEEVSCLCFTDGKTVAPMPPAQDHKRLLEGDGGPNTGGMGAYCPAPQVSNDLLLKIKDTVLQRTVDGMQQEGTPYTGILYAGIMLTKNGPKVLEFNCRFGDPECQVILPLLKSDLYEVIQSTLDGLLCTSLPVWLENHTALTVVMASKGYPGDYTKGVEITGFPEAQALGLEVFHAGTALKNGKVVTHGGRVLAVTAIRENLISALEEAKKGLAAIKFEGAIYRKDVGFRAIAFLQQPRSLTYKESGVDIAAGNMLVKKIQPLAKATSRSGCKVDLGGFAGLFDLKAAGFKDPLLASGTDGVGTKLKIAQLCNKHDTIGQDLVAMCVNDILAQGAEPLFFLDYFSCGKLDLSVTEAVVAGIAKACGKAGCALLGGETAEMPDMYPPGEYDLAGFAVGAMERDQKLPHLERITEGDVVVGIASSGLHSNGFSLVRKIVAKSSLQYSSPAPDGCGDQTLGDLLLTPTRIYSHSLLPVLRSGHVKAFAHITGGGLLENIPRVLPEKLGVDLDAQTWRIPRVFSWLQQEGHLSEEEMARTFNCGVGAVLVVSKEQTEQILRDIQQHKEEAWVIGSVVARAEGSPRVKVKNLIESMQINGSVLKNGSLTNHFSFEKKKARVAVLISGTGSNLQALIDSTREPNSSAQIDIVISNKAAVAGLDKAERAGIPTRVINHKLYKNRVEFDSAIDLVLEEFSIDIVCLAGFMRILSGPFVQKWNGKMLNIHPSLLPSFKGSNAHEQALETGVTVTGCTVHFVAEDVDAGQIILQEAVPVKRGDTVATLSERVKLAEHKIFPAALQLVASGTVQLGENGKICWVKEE
Assay: GAR Transformylase Inhibition Assay
Conditions: pH 7.5
Procedure: To initiate the assay, 150 μL of 20 nM His-GARFTase or buffer was added, and the plate was shaken for 5 s. […] For each antifolate, triplicate assays were performed at 20 different drug concentrations.

| Structure (SMILES) | Ki [nM] |
| --- | --- |
| Nc1nc2sc(CCCCc3ccc(C(=O)N[C@@H](CCC(=O)O)C(O)O)cc3)cc2c(=O)[nH]1 [AGF50] | 1070 |
| Nc1nc2[nH]c(CCCCc3ccc(C(=O)N[C@@H](CCC(=O)O)C(O)O)cc3)cc2c(=O)[nH]1 [AGF23] | 17 |
| Nc1nc2[nH]c(CCCCCCC(=O)N[C@H](CCC(=O)O)C(=O)O)cc2c(=O)[nH]1 [AGF145] | 67 |
| Nc1nc2[nH]c(CCCCc3ccc(C(=O)N[C@@H](CCC(=O)O)C(=O)O)s3)cc2c(=O)[nH]1 [(S)-2-({5-[4-(2-Amino-4-oxo-4,7-dihydro-3H-pyrrolo[2,3-d]-pyrimidin-6-yl)-butyl]-thiophene-2-carbonyl}-amino)-pentanedioicAcid] | 22 |
| Nc1nc2[nH]c(CCCCCCCC(=O)N[C@@H](CCC(=O)O)C(=O)O)cc2c(=O)[nH]1 | 99 |
